Measurements published in patent EP4763839A1 (Pamplona Therapeutics (Shenzhen) Co., Ltd., priority 2023, dated 2025).
Like-named read-outs stand apart in the source and are kept apart here.

How the values were obtained:
IL-6 = experiment: Inhibition of R848-induced IL-6 release in human PBMCs, IL-6 ELISA; assay type: cell-based; conditions: compound 24 hours, then R848 10 µg/mL 5 hours
Method: Example 3: Detection of inhibition of R848-induced IL-6 release
Cryopreserved human PBMCs (Milestone® Biotechnologies, PB010C-W) were thawed and resuspended in RPMI-1640 medium (Gibco, 22400-105) supplemented with 10% fetal bovine serum (Gibco, 10099-141), 100 U/mL penicillin, and 100 µg/mL streptomycin (Gibco, 15140122). Subsequently, 190 µL of the PBMC suspension was added to each well of 96-well clear cell culture plates (Corning, 3599) to achieve a density of 1×10^5 cells/well. The cell plates were incubated at 37°C in a 5% CO2 incubator for 30 minutes. Then, 5 µL of diluted compound solution was added to the corresponding cell-seeded wells to achieve final concentrations ranging from 0.046 to 3,000 nM. The final concentration of DMSO was 0.1%. After the compound-treated cell plate was incubated at 37°C in a 5% CO2 incubator for 24 hours, 5 µL of R848 (MCE, HY-13740) was added to achieve a final concentration of 10 µg/mL. The cell plates were incubated again at 37°C in a 5% CO2 incubator for 5 hours, then centrifuged at 1,000 rpm for 1 minute. 100 µL of the cell supernatant from each well was transferred to a new 96-well clear cell culture plate for IL-6 concentration testing.
Interleukin-6 (IL-6) ELISA assay
The IL-6 concentration in the supernatant of R848-induced human PBMCs was determined using a Human IL-6 (interleukin-6) ELISA KIT (4Bio, CHE0009-048). IL-6 standard solutions at different concentrations, ranging from 3.9 to 250 pg/mL, were prepared according to the manufacturer's instructions. 100 µL of each concentration of the IL-6 standard solution and the pre-diluted test cell supernatant samples were added separately to anti-IL-6 antibody-coated and blocked clear 96-well plates, followed by incubation at 37°C for 1.5 hours. According to the product instructions, the plates were washed, 100 µL of biotinylated antibody was added, and the plates were incubated at 37°C for 1 hour. The plates were washed, 100 µL of enzyme conjugate working solution was added. The plates were incubated at 37°C for 30 minutes, and then washed. 100 µL of chromogenic substrate was added, and the plates were incubated at 37°C for 10-20 minutes. The reaction was terminated by adding 100 µL of stop solution. After the reaction, the OD value at 450 nm was measured in absorbance mode using an Envision microplate reader (PerkinElmer). A standard curve was plotted using the corrected OD values of the various concentrations of IL-6 standard solutions. The IL-6 concentration in each cell supernatant was then determined on the basis of the corresponding concentration for the corrected OD value of the test sample on the standard curve. […] Subsequently, the IC50 value of the compound was calculated by performing non-linear curve fitting of concentration versus inhibition rate using GraphPad Prism 9.

IRAK4 [1] = biological target: T1, IRAK4 (Homo sapiens, UniProt Q9NWZ3); experiment: Degradation of IRAK4 in THP1 cells, Western blot; assay type: cell-based; parameters: Degradation of IRAK4 in THP1 by compound; host or cells: THP-1; conditions: THP-1 cells, 24 hours of incubation
T1 sequence (Q9NWZ3 1-460): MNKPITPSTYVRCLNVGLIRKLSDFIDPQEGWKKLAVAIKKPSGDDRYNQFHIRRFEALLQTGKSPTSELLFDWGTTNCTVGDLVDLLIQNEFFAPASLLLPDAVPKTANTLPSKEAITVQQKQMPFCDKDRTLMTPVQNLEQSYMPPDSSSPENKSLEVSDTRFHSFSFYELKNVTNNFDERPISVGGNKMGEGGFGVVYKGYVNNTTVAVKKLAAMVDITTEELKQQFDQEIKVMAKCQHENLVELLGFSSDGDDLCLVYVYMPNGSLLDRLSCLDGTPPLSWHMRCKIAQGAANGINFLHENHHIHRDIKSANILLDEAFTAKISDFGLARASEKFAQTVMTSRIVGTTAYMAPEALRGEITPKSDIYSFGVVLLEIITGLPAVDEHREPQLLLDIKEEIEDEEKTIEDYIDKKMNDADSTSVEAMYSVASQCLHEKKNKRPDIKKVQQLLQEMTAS
Method in brief: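 THP1 cells treated 24 h, lysed; lysates normalised by BCA, 40 μg protein per lane on 10% SDS-PAGE, anti-IRAK4 Western blot with chemiluminescence detection.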

IRAK4 [2] = biological target: T1, IRAK4; experiment: Assay for inhibitory effect of compound on IRAK4 kinase activity (KinEASE-STK S1 HTRF kit); assay type: biochemical
Method in brief: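 HTRF assay: 8 nM IRAK4 preincubated 15 minutes at rt with compound (final 5,000–0.0254 nM, 3-fold dilutions), then 400 nM biotinylated STK1 substrate and 80 µM ATP, 90 minutes at 37°C. Eu-cryptate anti-phospho-Ser/Thr antibody and streptavidin-XL665 detection, 665/620 ratio; IC50 from nonlinear fit of inhibition.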

[3] = kinase 8 nM, ATP 80 µM, 37°C 90 minutes, read-out: IRAK4 HTRF IC50

| Compound | IC50 (IRAK4 [2]; [3]) [nM] | other results |
| --- | --- | --- |
| COc1ccc(C(=O)N2CCC(CCN3CCN(c4ccc(N5C=C(NC(=O)c6cccc(C(F)(F)F)n6)C(=C=O)N5)cc4)CC3)C2)cc1N1CCC(=O)NC1=O (stereo not shown) [Compound A183, N-(3-carbonyl-1-(4-(4-(2-(1-(3-(2,4-dioxotetrahydropyrimidin-1(2H)-yl)-4-methoxybenzoyl)pyrrolidin-3-yl)ethyl)piperazin-1-yl)phenyl)-1H-pyrazol-4-yl)-6-(trifluoromethyl)picolinamide] | – | IC50 (IL-6; PBMC): < 10 nM; DC50 (IRAK4 [1]; IRAK4 protein by Western blot, read-out: DC50): < 100 nM; Dmax (IRAK4 [1]; maximum degradation rate, read-out: Dmax): > 60% |
| NC(=O)c1nn(-c2ccc(N3CCN(CC4CCN(c5ccc(N6CCC(=O)NC6=O)cc5)CC4)CC3)cc2)cc1NC(=O)c1cccc(C(F)(F)F)n1 [Compound A192, N-(3-carbamoyl-1-(4-((1-(4-(2,4-dioxotetrahydropyrimidin-1(2H)-yl)phenyl)piperidin-4-yl)methyl)piperazin-1-ylphenyl)-1H-pyrazol-4-yl)-6-(trifluoromethyl)picolinamide] | – | IC50 (IL-6; PBMC): 10 to 30 nM |
| NC(=O)c1nn(-c2ccc(N3CCN(CC4CCN(c5ccc(C(=O)NC6CCC(=O)NC6=O)cc5)CC4)CC3)cc2)cc1NC(=O)c1cccc(C(F)(F)F)n1 (stereo not shown) [Compound A171] | – | IC50 (IL-6; PBMC): 10 to 30 nM |
| NC(=O)c1nn(-c2ccc(CN3CCC4(CC3)CCN(c3ccc5c(c3)C(=O)N(C3CCC(=O)NC3=O)C5=O)CC4)cc2)cc1NC(=O)c1cccc(C(F)(F)F)n1 (stereo not shown) [Compound A222, N-(3-carbamoyl-1-(4-((9-(2-(2,6-dioxopiperidin-3-yl)-1,3-dioxoisoindolin-5-yl)-3,9-diazaspiro[5.5]undecan-3-yl)methyl)phenyl)-1H-pyrazol-4-yl)-6-(trifluoromethyl)picolinamide] | – | IC50 (IL-6; PBMC): 10 to 30 nM |
| N-(3-carbamoyl-1-(4-((1-(3-(2,4-dioxotetrahydropyrimidin-1(2H)-yl)-4-methoxybenzoyl)piperidin-4-yl)methyl)piperazin-1-yl)phenyl)-1H-pyrazol-4-yl)-6-(trifluoromethyl)picolinamide [Compound A175] | – | IC50 (IL-6): < 10 nM |
| NC(=O)c1nn(-c2ccc(N3CCN(CCC4CCN(c5ccc(NC6CCC(=O)NC6=O)cc5F)CC4)CC3)cc2)cc1NC(=O)c1cccc(C(F)(F)F)n1 (stereo not shown) [Compound A194, N-(3-Carbonyl-1-(4-(4-(2-(4-(((2,6-dioxopiperidin-3-yl)amino)-2-fluorophenyl)piperidin-4-yl)ethyl)piperazin-1-yl)phenyl)-1H-pyrazol-4-yl)-6-(trifluoromethyl)picolinamide] | – | IC50 (IL-6; PBMC): < 10 nM |
| COc1ccc(C(=O)N2CCC(CCN3CCN(c4ccc(-n5cc(NC(=O)c6cccc(C(F)(F)F)n6)c(C(N)=O)n5)cc4)CC3)C(F)(F)C2)cc1N1CCC(=O)NC1=O (stereo not shown) [Compound A168] | – | IC50 (IL-6; PBMC): < 10 nM |
| NS(=O)(=O)c1nn(C2CCC2)cc1NC(=O)c1ccn2ncc(-c3ccn[nH]3)c2n1 [Compound A278, N-(1-cyclobutyl-3-sulfonamide-1H-pyrazol-4-yl)-3-(1H-pyrazol-5-yl)pyrazolo[1,5-a]pyrimidine-5-carboxamide] | – | IC50 (IRAK4 [2]): < 100 nM |
| CC(C)(O)c1nn(-c2ccccc2)cc1NC(=O)c1cccc(-c2ccn[nH]2)n1 [Compound A240, N-(3-(2-Hydroxypropan-2-yl)-1-phenyl-1H-pyrazol-4-yl)-6-(1H-pyrazol-5-yl)picolinamide] | < 100 | – |
| CC(C)n1cc(-c2ccccc2)nc1NC(=O)c1cccc(C(F)(F)F)n1 [Compound A107, N-(1-isopropyl-4-phenyl-1H-imidazol-2-yl)-6-(trifluoromethyl)picolinamide] | > 1000 | – |
| NC(=O)c1nn(-c2cncnc2)cc1NC(=O)c1cccc(C(F)(F)F)n1 [Compound A45] | 100 to 1000 | – |
| NC(=O)c1nn(-c2ccccc2)cc1NC(=O)c1cccc(C(F)(F)F)n1 [Compound A5] | < 100 | – |
| O=C(Nc1cn(-c2ccccc2)nc1C(F)F)c1cccc(-c2ccn[nH]2)n1 [Compound A239, N-(3-(Difluoromethyl)-1-phenyl-1H-pyrazol-4-yl)-6-(1H-pyrazol-5-yl)picolinamide] | < 100 | – |
| CN(C)Cc1ccc(-n2cc(NC(=O)c3cccc(C(F)(F)F)n3)c(C(N)=O)n2)cc1 [Compound A22] | < 100 | – |
| NC(=O)c1nc(-c2ccccc2)oc1NC(=O)c1cccc(C(F)(F)F)n1 [Compound A58, 2-Phenyl-5-(6-(trifluoromethyl)picolinamido)oxazole-4-carboxamide] | > 1000 | – |
| NS(=O)(=O)c1nn(C2CCCCC2)cc1NC(=O)c1cccc(-c2ccn[nH]2)n1 [Compound A260, N-(1-Cyclohexyl-3-sulfamoyl-1H-pyrazol-4-yl)-6-(1H-pyrazol-5-yl)picolinamide] | < 100 | – |
| COc1nn(-c2ccccc2)cc1NC(=O)c1cccc(C(=O)c2cn[nH]c2)n1 [Compound A262, N-(3-methoxy-1-phenyl-1H-pyrazol-4-yl)-6-(1H-pyrazole-4-carbonyl)picolinamide] | < 100 | – |
| CC(=O)c1nn(-c2ccccc2)cc1NC(=O)c1cccc(-c2ccn[nH]2)n1 [Compound A241, N-(3-Acetyl-1-phenyl-1H-pyrazol-4-yl)-6-(1H-pyrazol-5-yl)picolinamide] | < 100 | – |
| COc1nn(-c2ccc(N3CCNCC3)cc2)cc1NC(=O)c1cccc(C(F)(F)F)n1 [Compound A39] | – | IC50 (IRAK4 [2]): 100 to 1000 nM |
| COc1ccc(-n2cc(NC(=O)c3cccc(C(F)(F)F)n3)c(C(N)=O)n2)cc1 [Compound A7] | 100 to 1000 | – |
| O=C(Nc1cn(-c2ccccc2)nc1C1CC(O)C1)c1cccc(C(F)(F)F)n1 (stereo not shown) [Compound A65, N-(3-(3-hydroxycyclobutyl)-1-phenyl-1H-pyrazol-4-yl)-6-(trifluoromethyl)picolinamide] | > 1000 | – |
| CC(F)(F)c1cccc(C(=O)Nc2cn(-c3ccccc3)nc2C(=O)NC2CC2)n1 [Compound A265, N-(3-(Cyclopropylcarbamoyl)-1-phenyl-1H-pyrazol-4-yl)-6-(1,1-difluoroethyl)picolinamide] | 100 to 1000 | – |
| NC(=O)c1oc(-c2ccccc2)nc1NC(=O)c1cccc(C(F)(F)F)n1 [Compound A57, 2-Phenyl-4-(6-(trifluoromethyl)picolinamido)oxazole-5-carboxamide] | > 1000 | – |
| O=C(Nc1cn(C2CCC2)nc1C(F)F)c1ccn2ncc(-c3ccn[nH]3)c2n1 [Compound A279, N-(1-cyclobutyl-3-(difluoromethyl)-1H-pyrazol-4-yl)-3-(1H-pyrazol-5-yl)pyrazolo[1,5-a]pyrimidine-5-carboxamide] | 100 to 1000 | – |
| NS(=O)(=O)c1nn(-c2ccccc2)cc1NC(=O)c1cccc(-c2cc[nH]n2)n1 [Compound A92, N-(1-phenyl-3-sulfamoyl-1H-pyrazol-4-yl)-6-(1H-pyrazol-3-yl)picolinamide] | < 100 | – |
| NS(=O)(=O)c1nn(-c2ccccc2)cc1NC(=O)c1cccc(-c2cc[nH]c2)n1 [Compound A95, N-(1-phenyl-3-sulfamoyl-1H-pyrazol-4-yl)-6-(1H-pyrrol-3-yl)picolinamide] | < 100 | – |
